# Data: EP3050567B1, “COMPOUND FOR ACTIVATING AMPK AND USES THEREOF” (Energenesis Biomedical Co., Ltd., priority 2013, dated 2015)
# Experiments:
# AMPK [1] = test: AMPK activation assay (phospho-AMPK Thr172 western blot) in 3T3 cells; type: cell-based, mouse; details: 30 min
# Protocol: (§1) Effects of adenine on AMPK activation were evaluated based on the phosphorylation of AMPK protein upon adenine treatment. Mouse muscle cell C2C12, mouse fibroblast 3T3, human liver carcinoma cell Hep G2, human breast adenocarcinoma cell line MCF7 and human colon adenocarcinoma grade II cell line HT29, human umbilical vein endothelial cell HUVEC, Human acute monocytic leukemiacell THP1, human macrophage cell U937, murine microglia cell BV-2, and mouse neuroblastoma cell Neuro2A and dermal papilla cell were cultured in high-glucose Dulbecco's modified Eagle's medium (DMEM) containing 10% fetal bovine serum (FBS), 4 mM L-glutamine, 2 mM sodium pyruvate and 1% penicillin/streptomycin (Invitrogen GibcoBRL, Carlsbad, Calif., USA) at 37°C, under 5% CO2. Cells were plated at 3 × 10^5 per well in 6-well plates. Twenty-four hours after plating, adenine was added to the culture media as indicated. After 30 min cells were lysed and subject to western blot analysis. Equal amount of protein from each sample was separated by SDS-PAGE and then electroblotted on to PVDF membranes. Membranes were blocked with 3% BSA in PBS for 60 min and incubated with an anti-phospho-AMPK (Thr172) antibody (1:2,000, Cell signaling) or an anti-AMPK antibody (1:2,000, Cell signaling) at 4°C for 16 h followed by the corresponding secondary antibody for 1 h at room temperature (RT). Immunoreactive bands were detected by enhanced chemiluminescence and recorded using Kodak film. The detected signals were scanned and then quantified using TotalLab Quant software (TotalLab).
# AMPK [2] = test: AMPK activation assay (phospho-AMPK Thr172 western blot) in Hep G2 cells; type: cell-based, human; details: 30 min
# Protocol: as §1
# AMPK [3] = test: AMPK activation assay (phospho-AMPK Thr172 western blot) in THP1 cells; type: cell-based, Human; details: 30 min
# Protocol: as §1
# AMPK [4] = test: AMPK activation assay (phospho-AMPK Thr172 western blot) in Neuro2A cells; type: cell-based, mouse; details: 30 min
# Protocol: as §1
# COX-2 = test: LPS-induced inflammatory response in THP1 macrophages, intracellular COX-2 (western blot); type: cell-based, human; details: 50 ng LPS 6 hr
# Protocol: Effects of adenine on inflammatory response were evaluated in human THP1 macrophage by examining protein level of intracellular COX-2 and secreted TNFα, IL-1β and IL-6. Differentiation of THP1 monocytes into macrophages was induced by 50 nM PMA for 24 hr. THP1 macrophages were further stimulated by 50 ng LPS for 6 hr in the presence of 10-600 µM of adenine or vehicle followed by cell lysis and western blot analysis. Equal amounts of protein were separated by SDS-PAGE and then electroblotted on to PVDF membranes. Membranes were blocked with 3% BSA in PBS for 60 min and incubated with an anti-COX-2 antibody (1:1,000, Cell signaling), an anti-actin antibody (1:5,000, Cell signaling) at 4° C for 16 h followed by the corresponding secondary antibody for 1 h at room temperature (RT). Immunoreactive bands were detected by enhanced chemiluminescence and recorded using Kodak film. The detected signals were scanned and then quantified using TotalLab Quant software (TotalLab). The secreted TNFα, IL-1β and IL-6 were analyzed by enzyme-linked immunosorbent assays.
# Amyloid β peptide = Amyloid β peptide assay in Neuro2A cells transfected with human APP695 (western blot); type: cell-based, mouse; details: 24 h
# Protocol: Effects of adenine on Amyloid β peptide were analyzed in mouse neuroblastoma cell Neuro2A. Neuro2A cells were cultured in high-glucose Dulbecco's modified Eagle's medium (DMEM) containing 10% fetal bovine serum (FBS), 4 mM L-glutamine, 2 mM sodium pyruvate and 1% penicillin/streptomycin (Invitrogen GibcoBRL, Carlsbad, Calif., USA) at 37°C under 5% CO2. Cells were plated at 3 × 10^5 per well (6-well plate). 24 h after plating, cells were transfected with human APP695 and treated with indicated concentration of adenine for 24 h followed by cell lysis and western blot analysis. Equal amounts of protein were separated by SDS-PAGE and then electroblotted on to PVDF membranes. Membranes were blocked with 3% BSA in PBS for 60 min and incubated with an anti-Aβ antibody (1:1,000, abcam), an anti-LC3 antibody (1:1,000, Cell signaling), and an anti-actin antibody (1:5,000, Cell signaling) at 4°C for 16 h followed by the corresponding secondary antibody for 1 h at room temperature (RT). Immunoreactive bands were detected by enhanced chemiluminescence and recorded using Kodakfilm. The detected signals were scanned and then quantified by using TotalLab Quant software (TotalLab).
# Aβ infusion mice = test: Aβ-induced Alzheimer's disease model mice, Morris water maze assay; type: in vivo, C57BL/6J mice; details: AD mice, daily IP adenine 0.01, 0.1, 5 or 30 mg/kg for 4 weeks, vs control AD mice
# Protocol: Aβ25-35 was purchased from Sigma-Aldrich (St. Louis, Missouri). The peptides were dissolved in distilled saline and aggregated by incubation at 37°C for 7 days before injection. C57BL/6J mice were maintained at 22° C under a 12-h light/dark cycle. Adult mice were anesthetized by ketamine (500 mg/kg) and xylazine (100 mg/kg) and placed in a stereotaxic frame. Five nmol of the aggregated Aβ25-35 were injected into the lateral ventricle using a 10 µl Hamilton syringe. The target anterior-posterior (AP), medial-lateral (ML) and dorsoventral coordinates were -0.5 mm, ±1 mm and -2.5 mm relative to the bregma. To evaluate the effect of adenine on neurodegenerative disease, Aβ infusion mice were daily intraperitoneally injected with 0.01, 0.1, 5 or 30 mg/kg bodyweight of adenine or vehicle for 4 weeks. The cognitive functions of these mice were analyzed by using Morris water maze assay after 4 weeks injection. The water maze was performed in a circular pool filled with water and a platform was submerged below the water's surface in the target quadrant for hidden platform test. During the 5-day hidden platform test, mice were randomly placed into starting points of the pool in each daily trial (6 trials per day). […] Mice were allowed to swim in the maze for 60 s and recorded by a video camera. The latency to find the platform and swim paths was analyzed by software.
smiles,measurement,setting,value
"Nc1ncnc2nc[nH]c12 [Adenine, adenine]",AMPK activation (fold to control),AMPK [1]; adenine 1 microM,1.1 fold to control
same,AMPK activation (fold to control),AMPK [1]; adenine 10 microM,1.5 fold to control
same,AMPK activation (fold to control),AMPK [1]; adenine 100 microM,2.9 fold to control
same,AMPK activation (fold to control),AMPK [1]; adenine 200 microM,4.0 fold to control
same,AMPK activation (fold to control),AMPK [1]; adenine 600 microM,4.2 fold to control
same,AMPK activation (fold to control),AMPK [2]; adenine 1 microM,1.1 fold to control
same,AMPK activation (fold to control),AMPK [2]; adenine 10 microM,2.1 fold to control
same,AMPK activation (fold to control),AMPK [2]; adenine 100 microM,3.3 fold to control
same,AMPK activation (fold to control),AMPK [2]; adenine 200 microM,3.8 fold to control
same,AMPK activation (fold to control),AMPK [2]; adenine 600 microM,4.2 fold to control
same,AMPK activation (fold to control),AMPK [3]; adenine 1 microM,1.2 fold to control
same,AMPK activation (fold to control),AMPK [3]; adenine 10 microM,2.2 fold to control
same,AMPK activation (fold to control),AMPK [3]; adenine 100 microM,3.7 fold to control
same,AMPK activation (fold to control),AMPK [3]; adenine 200 microM,4.3 fold to control
same,AMPK activation (fold to control),AMPK [3]; adenine 600 microM,4.2 fold to control
same,AMPK activation (fold to control),AMPK [4]; adenine 1 microM,1.2 fold to control
same,AMPK activation (fold to control),AMPK [4]; adenine 10 microM,2.1 fold to control
same,AMPK activation (fold to control),AMPK [4]; adenine 100 microM,3.4 fold to control
same,COX-2 (% to control),COX-2; adenine 10 microM,81±4.4 % to control
same,COX-2 (% to control),COX-2; adenine 100 microM,59±3.5 % to control
same,COX-2 (% to control),COX-2; adenine 600 microM,38±5.3 % to control
same,sAβ level (% of control),"Amyloid β peptide; Neuro2A cells transfected with human APP695, adenine 10 microM",89 ± 7.5 % of control
same,sAβ level (% of control),"Amyloid β peptide; Neuro2A cells transfected with human APP695, adenine 20 microM",63 ± 2.2 % of control
same,sAβ level (% of control),"Amyloid β peptide; Neuro2A cells transfected with human APP695, adenine 30 microM",48.1 ± 1.7 % of control
same,sAβ level (% of control),"Amyloid β peptide; Neuro2A cells transfected with human APP695, adenine 40 microM",31.7 ± 5.1 % of control
same,sAβ level (% of control),"Amyloid β peptide; Neuro2A cells transfected with human APP695, adenine 50 microM",29.4 ± 3.6 % of control
same,time to find platform (hidden platform test),Aβ infusion mice; dose-dependent,significantly shorter time
same,percentage time in target quadrant (probe assay),Aβ infusion mice,higher percentage time
